Results: ChEMBL document CHEMBL1909046, “DrugMatrix in vitro pharmacology data”

Legend:
[1] = molecular target: T1, Cytochrome P450 1A2 (Homo sapiens, UniProt P05177); settings: bti-tn-5b1-4
T1 sequence (P05177 whole entry): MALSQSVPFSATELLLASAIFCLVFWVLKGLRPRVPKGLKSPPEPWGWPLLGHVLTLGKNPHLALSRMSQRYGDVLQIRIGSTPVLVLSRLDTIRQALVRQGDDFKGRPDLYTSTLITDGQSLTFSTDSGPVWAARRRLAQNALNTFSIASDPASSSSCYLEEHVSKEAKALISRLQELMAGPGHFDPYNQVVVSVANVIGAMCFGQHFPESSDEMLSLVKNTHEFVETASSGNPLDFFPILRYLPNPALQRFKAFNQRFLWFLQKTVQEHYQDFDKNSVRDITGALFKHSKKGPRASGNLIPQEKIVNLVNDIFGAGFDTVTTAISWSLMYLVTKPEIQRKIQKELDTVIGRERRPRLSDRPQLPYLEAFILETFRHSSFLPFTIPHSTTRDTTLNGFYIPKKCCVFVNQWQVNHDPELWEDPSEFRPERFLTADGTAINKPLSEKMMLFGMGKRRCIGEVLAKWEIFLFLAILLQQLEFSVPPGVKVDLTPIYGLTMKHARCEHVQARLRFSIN

[2] = molecular target: T2, Cytochrome P450 2A6 (Homo sapiens, UniProt P11509); settings: bti-tn-5b1-4
T2 sequence (P11509 whole entry): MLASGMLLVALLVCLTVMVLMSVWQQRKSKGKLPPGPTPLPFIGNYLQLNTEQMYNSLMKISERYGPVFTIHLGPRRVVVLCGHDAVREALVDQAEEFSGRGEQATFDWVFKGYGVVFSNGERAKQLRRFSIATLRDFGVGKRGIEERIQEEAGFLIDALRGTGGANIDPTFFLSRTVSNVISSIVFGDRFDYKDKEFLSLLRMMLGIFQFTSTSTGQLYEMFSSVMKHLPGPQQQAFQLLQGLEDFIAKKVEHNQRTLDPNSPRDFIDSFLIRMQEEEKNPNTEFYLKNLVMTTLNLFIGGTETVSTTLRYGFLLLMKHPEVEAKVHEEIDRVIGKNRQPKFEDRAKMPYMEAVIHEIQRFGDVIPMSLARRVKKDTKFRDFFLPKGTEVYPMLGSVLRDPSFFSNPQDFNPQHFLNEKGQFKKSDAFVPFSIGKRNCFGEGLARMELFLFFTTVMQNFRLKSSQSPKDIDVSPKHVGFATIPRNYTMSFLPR

[3] = molecular target: Cytochrome P450 2C19 (Homo sapiens, UniProt P33261); settings: bti-tn-5b1-4
Cytochrome P450 2C19, sequence (P33261 whole entry): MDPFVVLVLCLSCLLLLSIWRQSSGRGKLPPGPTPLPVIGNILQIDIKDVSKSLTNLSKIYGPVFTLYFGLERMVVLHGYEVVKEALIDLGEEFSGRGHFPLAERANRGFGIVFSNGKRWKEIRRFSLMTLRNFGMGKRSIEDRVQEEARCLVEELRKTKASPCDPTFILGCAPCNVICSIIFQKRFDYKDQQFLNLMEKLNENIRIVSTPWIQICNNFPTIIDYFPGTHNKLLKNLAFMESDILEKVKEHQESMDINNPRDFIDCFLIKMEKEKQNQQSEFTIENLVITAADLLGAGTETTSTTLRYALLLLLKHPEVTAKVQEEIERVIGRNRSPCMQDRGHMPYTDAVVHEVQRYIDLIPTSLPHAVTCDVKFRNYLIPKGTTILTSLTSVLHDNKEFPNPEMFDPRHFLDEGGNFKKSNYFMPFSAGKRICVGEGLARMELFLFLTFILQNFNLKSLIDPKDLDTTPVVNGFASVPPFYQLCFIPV

[4] = molecular target: Cytochrome P450 2C9 (Homo sapiens, UniProt P11712); settings: bti-tn-5b1-4
Cytochrome P450 2C9, sequence (P11712 whole entry): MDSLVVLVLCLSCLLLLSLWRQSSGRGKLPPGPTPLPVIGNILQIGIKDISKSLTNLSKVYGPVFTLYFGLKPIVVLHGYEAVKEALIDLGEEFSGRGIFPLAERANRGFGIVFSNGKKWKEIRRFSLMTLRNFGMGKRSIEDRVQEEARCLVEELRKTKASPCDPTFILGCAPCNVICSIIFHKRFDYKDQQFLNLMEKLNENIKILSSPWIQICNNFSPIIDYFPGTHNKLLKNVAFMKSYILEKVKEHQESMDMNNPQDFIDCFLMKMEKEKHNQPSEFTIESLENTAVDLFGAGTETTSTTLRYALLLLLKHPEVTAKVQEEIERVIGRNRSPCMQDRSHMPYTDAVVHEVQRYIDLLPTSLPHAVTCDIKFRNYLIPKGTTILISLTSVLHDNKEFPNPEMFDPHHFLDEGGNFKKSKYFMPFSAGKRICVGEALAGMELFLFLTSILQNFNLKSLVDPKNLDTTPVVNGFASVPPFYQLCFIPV

[5] = molecular target: Cytochrome P450 2D6 (Homo sapiens, UniProt P10635); settings: bti-tn-5b1-4
Cytochrome P450 2D6, sequence (P10635 whole entry): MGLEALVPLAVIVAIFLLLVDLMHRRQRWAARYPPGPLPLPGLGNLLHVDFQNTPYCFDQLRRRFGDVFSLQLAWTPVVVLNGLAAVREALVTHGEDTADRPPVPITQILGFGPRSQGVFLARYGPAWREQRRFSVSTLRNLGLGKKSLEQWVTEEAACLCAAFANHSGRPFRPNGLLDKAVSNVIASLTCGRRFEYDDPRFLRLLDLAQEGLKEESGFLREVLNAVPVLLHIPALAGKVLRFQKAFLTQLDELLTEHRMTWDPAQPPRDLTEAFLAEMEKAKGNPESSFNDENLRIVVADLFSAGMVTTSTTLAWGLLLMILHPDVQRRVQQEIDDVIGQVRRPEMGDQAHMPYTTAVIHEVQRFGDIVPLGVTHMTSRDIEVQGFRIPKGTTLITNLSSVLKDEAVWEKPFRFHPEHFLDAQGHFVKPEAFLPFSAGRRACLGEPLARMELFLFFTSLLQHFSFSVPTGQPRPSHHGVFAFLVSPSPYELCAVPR

[6] = molecular target: Cytochrome P450 2E1 (Homo sapiens, UniProt P05181); settings: bti-tn-5b1-4
Cytochrome P450 2E1, sequence (P05181 whole entry): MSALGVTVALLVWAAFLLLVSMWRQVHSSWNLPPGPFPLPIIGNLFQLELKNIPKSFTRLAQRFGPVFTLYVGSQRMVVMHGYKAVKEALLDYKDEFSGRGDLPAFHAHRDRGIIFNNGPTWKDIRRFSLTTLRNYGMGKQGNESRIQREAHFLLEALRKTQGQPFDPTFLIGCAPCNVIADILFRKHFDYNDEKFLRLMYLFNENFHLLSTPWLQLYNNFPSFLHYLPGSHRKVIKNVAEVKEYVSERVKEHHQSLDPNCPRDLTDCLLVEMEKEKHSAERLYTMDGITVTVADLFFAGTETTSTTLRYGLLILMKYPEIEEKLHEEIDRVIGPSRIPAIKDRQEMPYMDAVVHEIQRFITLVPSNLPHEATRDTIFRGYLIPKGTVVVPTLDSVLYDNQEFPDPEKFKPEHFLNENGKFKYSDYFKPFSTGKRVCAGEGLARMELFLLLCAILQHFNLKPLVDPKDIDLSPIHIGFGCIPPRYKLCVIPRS

[7] = molecular target: Cytochrome P450 3A4 (Homo sapiens, UniProt P08684); settings: bti-tn-5b1-4
Cytochrome P450 3A4, sequence (P08684 whole entry): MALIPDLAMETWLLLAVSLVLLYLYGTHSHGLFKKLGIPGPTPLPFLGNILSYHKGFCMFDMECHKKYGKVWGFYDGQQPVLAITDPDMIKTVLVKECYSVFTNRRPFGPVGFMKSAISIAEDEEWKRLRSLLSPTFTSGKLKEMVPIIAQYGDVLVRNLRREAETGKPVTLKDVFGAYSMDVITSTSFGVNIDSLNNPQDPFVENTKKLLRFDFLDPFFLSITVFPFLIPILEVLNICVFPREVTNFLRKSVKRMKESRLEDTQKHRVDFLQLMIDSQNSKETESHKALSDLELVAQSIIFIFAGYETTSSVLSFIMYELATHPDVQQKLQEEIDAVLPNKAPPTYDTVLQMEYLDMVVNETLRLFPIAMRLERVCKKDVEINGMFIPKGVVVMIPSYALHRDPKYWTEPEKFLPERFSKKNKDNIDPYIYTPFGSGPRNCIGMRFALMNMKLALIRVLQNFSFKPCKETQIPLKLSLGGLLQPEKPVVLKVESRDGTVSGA

[8] = molecular target: Voltage-gated inwardly rectifying potassium channel KCNH2 (Homo sapiens, UniProt Q12809); settings: hek293
Voltage-gated inwardly rectifying potassium channel KCNH2, sequence (Q12809 whole entry): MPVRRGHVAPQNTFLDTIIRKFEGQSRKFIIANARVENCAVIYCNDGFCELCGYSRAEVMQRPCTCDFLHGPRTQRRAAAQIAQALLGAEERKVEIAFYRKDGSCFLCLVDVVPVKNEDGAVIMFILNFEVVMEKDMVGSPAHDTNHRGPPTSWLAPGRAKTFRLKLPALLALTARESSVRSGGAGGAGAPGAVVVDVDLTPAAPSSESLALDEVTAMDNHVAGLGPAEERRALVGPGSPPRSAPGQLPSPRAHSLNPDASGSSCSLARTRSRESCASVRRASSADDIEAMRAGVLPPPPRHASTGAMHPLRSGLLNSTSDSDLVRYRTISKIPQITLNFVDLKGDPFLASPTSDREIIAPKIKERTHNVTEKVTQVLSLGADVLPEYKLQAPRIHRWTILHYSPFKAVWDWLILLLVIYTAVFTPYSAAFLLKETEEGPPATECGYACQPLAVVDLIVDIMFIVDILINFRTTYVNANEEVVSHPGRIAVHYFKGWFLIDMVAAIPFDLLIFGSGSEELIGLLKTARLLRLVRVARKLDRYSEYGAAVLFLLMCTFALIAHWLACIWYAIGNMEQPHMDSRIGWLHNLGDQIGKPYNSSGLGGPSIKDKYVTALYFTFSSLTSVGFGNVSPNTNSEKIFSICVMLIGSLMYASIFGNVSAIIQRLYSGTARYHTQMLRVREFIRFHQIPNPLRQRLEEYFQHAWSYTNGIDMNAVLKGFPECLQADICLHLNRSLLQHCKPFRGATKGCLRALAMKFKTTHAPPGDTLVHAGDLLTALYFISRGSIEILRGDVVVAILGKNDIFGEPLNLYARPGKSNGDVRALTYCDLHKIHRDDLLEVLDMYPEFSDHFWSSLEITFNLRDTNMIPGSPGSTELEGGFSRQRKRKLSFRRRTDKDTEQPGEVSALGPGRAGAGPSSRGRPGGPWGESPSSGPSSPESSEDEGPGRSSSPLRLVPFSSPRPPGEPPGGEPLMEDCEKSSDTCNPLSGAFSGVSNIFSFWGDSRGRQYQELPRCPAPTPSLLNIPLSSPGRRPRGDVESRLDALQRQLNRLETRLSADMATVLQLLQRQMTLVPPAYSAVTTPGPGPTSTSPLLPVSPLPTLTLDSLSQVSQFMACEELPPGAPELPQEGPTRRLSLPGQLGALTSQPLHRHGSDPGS
Note: in other assays of this panel Not Active means under 50% inhibition at 10 µM.

IC50 [1]: Not Active
Ki [1]: Not Active
IC50 [2]: Not Active
Ki [2]: Not Active
IC50 [3]: Not Active
Ki [3]: Not Active
IC50 [4]: Not Active
Ki [4]: Not Active
IC50 [5]: Not Active
Ki [5]: Not Active
IC50 [6]: Not Active
Ki [6]: Not Active
IC50 [7]: Not Active
Ki [7]: Not Active
Structure (SMILES): CC=Cc1ccc(O)c(OC)c1 [ISOEUGENOL]
IC50 [8]: Not Active
Ki [8]: Not Active
